Where a chain is given by its changes, count along the chain named. Several values for one entry are separate records, joined by “and”; a condition that tells them apart may be missing. Equal values may be shown once.
Experiments:
Type in all cases: cell-based
L568Q mutant hTRPV6 = target: T1, L568Q mutant hTRPV6 (Homo sapiens, UniProt Q9H1D0, L608Q); test: Fura-2 AM Ca2+ uptake, L568Q mutant hTRPV6
T1 construct: Full-length wild-type or mutant human TRPV6 was expressed in HEK 293S cells as described above; expressed in transfected cells; host or cells: HEK 293S GnTI- (baculovirus/BacMam transduction)
T1 sequence (Q9H1D0 41-765 L608Q limits assumed): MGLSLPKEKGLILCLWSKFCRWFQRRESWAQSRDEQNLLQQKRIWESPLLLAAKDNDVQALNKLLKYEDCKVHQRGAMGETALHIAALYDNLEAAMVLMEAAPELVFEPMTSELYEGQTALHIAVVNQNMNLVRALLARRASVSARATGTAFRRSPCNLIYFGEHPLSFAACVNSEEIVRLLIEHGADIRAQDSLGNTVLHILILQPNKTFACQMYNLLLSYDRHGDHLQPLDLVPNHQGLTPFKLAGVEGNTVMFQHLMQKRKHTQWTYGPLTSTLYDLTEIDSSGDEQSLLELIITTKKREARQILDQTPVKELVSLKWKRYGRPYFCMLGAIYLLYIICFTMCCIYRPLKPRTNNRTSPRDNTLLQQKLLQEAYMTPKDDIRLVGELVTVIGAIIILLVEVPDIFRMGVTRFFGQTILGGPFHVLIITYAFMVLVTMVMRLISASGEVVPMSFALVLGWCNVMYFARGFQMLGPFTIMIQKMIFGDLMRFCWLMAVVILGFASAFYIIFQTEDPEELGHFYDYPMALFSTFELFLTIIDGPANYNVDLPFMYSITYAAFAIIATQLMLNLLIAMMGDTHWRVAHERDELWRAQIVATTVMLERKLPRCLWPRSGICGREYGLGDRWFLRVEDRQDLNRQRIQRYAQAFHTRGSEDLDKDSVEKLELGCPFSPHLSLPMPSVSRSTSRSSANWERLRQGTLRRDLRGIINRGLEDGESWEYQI

F493A mutant hTRPV6 = target: T2, F493A mutant hTRPV6 (Homo sapiens, UniProt Q9H1D0, F533A); test: Fura-2 AM Ca2+ uptake, F493A mutant hTRPV6
T2 construct: Full-length wild-type or mutant human TRPV6 was expressed in HEK 293S cells as described above; expressed in transfected cells; host or cells: HEK 293S GnTI- (baculovirus/BacMam transduction)
T2 sequence (Q9H1D0 41-765 F533A limits assumed): T1 sequence (Q9H1D0 41-765 L608Q limits assumed) with F493A, Q568L

[1] = test system: non-transfected HEK293 cells; test: Fura-2 AM measurements in non-transfected cells (Control, non-specific effects)

Structure (SMILES): CCCc1cc(O)c2c(c1)OC(C)(C)[C@@H]1CCC(C)=C[C@@H]21 [THCV, tetrahydrocannabivarin]
- IC50 (L568Q mutant hTRPV6): 62.1 ± 18.2 µM
- IC50 (F493A mutant hTRPV6): 2700 ± 230 nM
- fraction of uninhibited channels (F493A mutant hTRPV6; F493A, high THCV concentration): ~ 20%
- change in F340/F380 evoked by 10 mM Ca2+ ([1]; 1 μM THCV, non-transfected Control for L490W): 0.594 and 0.640 and 0.727 and 0.615 and 0.755 and 0.577 and 0.626 and 0.554
- change in F340/F380 evoked by 10 mM Ca2+ ([1]; 1 μM THCV, non-transfected Control for L568Q): 0.236 and 0.186 and 0.230 and 0.259
- change in F340/F380 evoked by 10 mM Ca2+ ([1]; 1 μM THCV, non-transfected Control for WT): 0.249 and 0.167 and 0.182 and 0.175 and 0.226 and 0.257 and 0.284
- change in F340/F380 evoked by 10 mM Ca2+ ([1]; 3 μM THCV, non-transfected Control for A561W): 0.179 and 0.153 and 0.129 and 0.145
- change in F340/F380 evoked by 10 mM Ca2+ ([1]; 3 μM THCV, non-transfected Control for L490W): 0.538 and 0.676 and 0.767 and 0.653 and 0.598 and 0.662 and 0.719 and 0.624
- change in F340/F380 evoked by 10 mM Ca2+ ([1]; 3 μM THCV, non-transfected Control for L568Q): 0.250 and 0.211 and 0.221 and 0.198
- change in F340/F380 evoked by 10 mM Ca2+ ([1]; 3 μM THCV, non-transfected Control for WT): 0.179 and 0.155 and 0.221 and 0.163 and 0.257 and 0.246 and 0.260 and 0.248
- change in F340/F380 evoked by 10 mM Ca2+ ([1]; 10 μM THCV, non-transfected Control for A561W): 0.140 and 0.130 and 0.114 and 0.151
- change in F340/F380 evoked by 10 mM Ca2+ ([1]; 10 μM THCV, non-transfected Control for L490W): 0.786 and 0.674 and 0.776 and 0.581 and 0.711 and 0.793 and 0.539 and 0.598
- change in F340/F380 evoked by 10 mM Ca2+ ([1]; 10 μM THCV, non-transfected Control for L568Q): 0.183 and 0.286 and 0.214 and 0.195
- change in F340/F380 evoked by 10 mM Ca2+ ([1]; 10 μM THCV, non-transfected Control for WT): 0.157 and 0.141 and 0.174 and 0.159 and 0.185 and 0.222 and 0.233 and 0.195
- change in F340/F380 evoked by 10 mM Ca2+ ([1]; 30 μM THCV, non-transfected Control for A561W): 0.167 and 0.140 and 0.127 and 0.125
- change in F340/F380 evoked by 10 mM Ca2+ ([1]; 30 μM THCV, non-transfected Control for L490W): 0.558 and 0.549 and 0.721 and 0.691 and 0.606 and 0.572 and 0.500 and 0.698
- change in F340/F380 evoked by 10 mM Ca2+ ([1]; 30 μM THCV, non-transfected Control for L568Q): 0.187 and 0.206 and 0.233
- change in F340/F380 evoked by 10 mM Ca2+ ([1]; 30 μM THCV, non-transfected Control for WT): 0.137 and 0.141 and 0.135 and 0.156 and 0.185 and 0.188 and 0.221 and 0.228
- change in F340/F380 evoked by 10 mM Ca2+ ([1]; 100 μM THCV, non-transfected Control for A561W): 0.497
- change in F340/F380 evoked by 10 mM Ca2+ ([1]; 100 μM THCV, non-transfected Control for L490W): 0.627 and 0.939 and 0.740 and 0.797 and 0.911 and 0.811 and 1.132 and 0.767
- change in F340/F380 evoked by 10 mM Ca2+ ([1]; 100 μM THCV, non-transfected Control for WT): 0.644
